Experimental data as given in patent publication US20240082340A1 (Biohaven Therapeutics Ltd., priority 2021, published 2024).

Key:
[1] = taken with meals; cited from earlier work
[2] = system: patients diagnosed with Alzheimer's disease of mild-to-moderate severity; test: T2 Protect AD trial: volumetric MRI hippocampal volume (Quarc); type: in vivo, human; conditions: for Hippocampal Volume Change, Model Estimates, LSMean (SE) Difference: Week 48, placebo vs troriluzole
From the text: vMRI allows the in vivo assessment of brain structure volume and provides a measure of atrophy rate. […] Atrophy of the medial temporal lobe, including hippocampus and entorhinal cortex, has long been described in vMRI studies of AD. Hippocampal volume derived from MRI correlates with histological hippocampal volume and degree of neuronal loss and AD pathology, and entorhinal cortical thickness change appears to be an early and sensitive indicator of neurodegeneration associated with AD (Holland et al., 2009; Jack et al., 2004).
Participants will undergo vMRI scans of the brain at screening, week 24 and week 48 in order to assess for changes in brain volumes that may be associated with clinical change due to treatment with BHV-4157.
Volumetric MRI scans will use the same imaging protocol, which will include a localizer scan, a 3D T1-weighted sagittal acquisition (MPRAGE or IR-SPGR), a T2-weighted FLAIR axial acquisition, a T2* gradient recalled echo axial acquisition for magnetic susceptibility, and a diffusion weighted axial acquisition to assess for restricted diffusion.
Images will be checked for image quality and adherence to scanning protocols. 3D T1-weighted datasets passing quality checks will be corrected for spatial distortion and for intensity variation. Screening and follow-up datasets for each participant will be spatially registered to one another using rigid-body registration followed by nonlinear registration and neuroanatomic parcellation to quantify whole-brain and subregional volumetric change on a patient-by patient basis.
Whole brain volume (WBV, excluding cerebellum), bilateral ventricular volume and bilateral hippocampal volume will be measured. Quantitative anatomical regional change (Quarc) will be used as the computational MR image processing application. Detail for the statistical computations is given in the Statistical Analytical Plan (SAP).
(§1) The T2 Protect AD trial has been conducted, which is a Phase 2/3, randomized, double-blind, placebo-controlled study evaluating the efficacy and safety of troriluzole in patients diagnosed with Alzheimer's disease of mild-to-moderate severity (Mini-Mental State Examination [MMSE] scores of 14-24; mild: 20-24, moderate: 14-19).

[3] = system: patients diagnosed with Alzheimer's disease of mild-to-moderate severity; test: T2 Protect AD trial: ADAS-Cog 11; type: in vivo, human; conditions: for ADAS-Cog Total Score, Model Estimates, LSMean (SE): change from baseline; for ADAS-Cog Total Score, Model Estimates, LSMean (SE) Difference: placebo vs troriluzole
From the text: (§2) The ADAS-Cog 11 evaluates memory (word recall, word recognition), reasoning (following commands), language (naming, comprehension), orientation, ideational praxis (placing a letter in an envelope) and constructional praxis (copying geometric designs). Ratings of spoken language, language comprehension, word finding difficulty, and ability to remember test instructions are also obtained. The test is scored in terms of errors, with higher scores reflecting poorer performance and greater impairment. Scores can range from 0 (best) to 70 (worse).
The primary efficacy endpoint is the within-participant change in ADAS-Cog 11 from baseline to week 48, compared between the treatment group and the placebo group.
as §2, with “11 (Rosen, Mohs, & Davis, 1984) is a structured scale that” for “11”
as §1

[4] = system: patients diagnosed with Alzheimer's disease of mild-to-moderate severity; test: T2 Protect AD trial: Neuropsychiatric Inventory (NPI); type: in vivo, human; conditions: for NPI score LS mean change, difference versus placebo: after 48 weeks, troriluzole minus placebo
From the text: The NPI is a well-validated, reliable, multi-item instrument to assess psychopathology in AD dementia based on the results of an interview with the study partner (Cummings, 1997). The NPI evaluates both the frequency and severity of 10 neuropsychiatric features, including delusions, hallucinations, agitation/aggression, dysphoria, anxiety, euphoria, apathy, disinhibition, irritability and lability, and aberrant motor behavior, as well as evaluates sleep and appetite/eating disorders. Frequency assessments range from 1 (occasionally, less than once per week) to 4 (very frequently, once or more per day or continuously). Severity assessments range from 1 (mild) to 3 (severe). The score for each subscale is the product of severity and frequency and the total score is the sum of all subscales.
as §1

[5] = system: patients diagnosed with Alzheimer's disease of mild-to-moderate severity; test: T2 Protect AD trial: CDR-Sum of Boxes; type: in vivo, human; conditions: Week 48; for CDR01-Sum of Boxes, Model Estimates, LSMean (SE) Difference: placebo vs troriluzole
From the text: The CDR-SOB (Hughes, Berg, Danziger, Coben, & Martin, 1982) is a validated composite rating of cognition and everyday functioning used in longitudinal AD research which incorporates both informant input and direct assessment of performance. It assesses through semi structured interview 3 cognitive domains including memory, orientation, and judgement/problem solving and 3 everyday functional domains including community affairs, home and hobbies and personal care. There are 5 levels of impairment from none CDR=0 to severe CDR=3. The individual domain scores are added to create a sum of the box scores.
as §1

[6] = after 48 weeks, mild AD, placebo minus troriluzole
[7] = Week 48, mild-to-moderate AD, 280 mg once daily

## Nc1nc2ccc(OC(F)(F)F)cc2s1 [Riluzole, riluzole]
[1]
  food effect on exposure: reduced exposure when taken with meals

## CN(CC(=O)Nc1nc2ccc(OC(F)(F)F)cc2s1)C(=O)CNC(=O)CN [Troriluzole, troriluzole]
[2]; mild AD patients only
  Hippocampal Volume Change, Model Estimates, LSMean (SE) Difference: −0.5 (0.38)
[2]; mild-to-moderate AD
  Hippocampal Volume Change, Model Estimates, LSMean (SE) Difference: 0.0 (0.26)
[2]; [6]
  hippocampal volume LS mean percent deformation change, difference versus placebo: −0.5%
[2]; overall population
  key secondary measure of hippocampal volume assessed by MRI, versus placebo: did not differentiate from placebo
[3]; Week 48, mild AD patients only
  ADAS-Cog Total Score, Model Estimates, LSMean (SE): 4.2
  ADAS-Cog Total Score, Change from Baseline, Mean (SD): 3.9
  ADAS-Cog Total Score, Model Estimates, LSMean (SE) Difference: 0.7 (1.02)
[3]; [7]
  ADAS-Cog Total Score, Model Estimates, LSMean (SE): 6.7 (0.70)
  ADAS-Cog Total Score, Change from Baseline, Mean (SD): 5.8 (7.40)
  ADAS-Cog Total Score, Change from Baseline, Median: 6.0
[3]; Week 48, mild AD patients only, 280 mg once daily
  ADAS-Cog Total Score, Analysis Value, Mean (SD): 26.2
[3]; Week 48, mild-to-moderate AD
  outcome on co-primary endpoint ADAS-cog: did not meet the study's pre-specified co-primary endpoints
  ADAS-Cog Total Score, Model Estimates, LSMean (SE) Difference: 0.0 (0.93)
[3]; [6]
  ADAS-Cog11 score LS mean change, difference versus placebo: 0.7 points
[4]; Week 48, only mild AD, only moderate AD, only ApoE4 positive, only ApoE4 negative patients
  NPI across subgroups versus placebo: numerical differences of a potential benefit
[4]; mild AD
  NPI score LS mean change, difference versus placebo: −2.1 points
[4]; mild-to-moderate AD
  NPI score LS mean change, difference versus placebo: −1.5 points
[5]; mild-to-moderate AD
  outcome on co-primary endpoint CDR-SB: did not meet the study's pre-specified co-primary endpoints
  CDR01-Sum of Boxes, Model Estimates, LSMean (SE) Difference: −0.2 (0.28)
[5]; mild AD patients only
  CDR01-Sum of Boxes, Model Estimates, LSMean (SE) Difference: −0.3 (0.40)
